Results on one compound are retold here after patent US5786344A, “Camptothecin drug combinations and methods with reduced side effects” (priority 1995, dated 1998).

Series [1] in a line: in vivo. To be noted: rat, in vivo, iv, 20 mg/kg. The source says: (§1) Of these 2 types of inducers, phenobarbital has been used as an […] and a mildly sedative agent in humans. The inventors' objective here was to investigate the effect of phenobarbital administration on the glucuronidation of SN-38 in rats.
(§2) Animal protocol: Female Wistar rats (~200 gm) having a permanent catheter installed in the right jugular vein were obtained from Charles River Breeding Laboratories (Wilmington, Mass.).
(§3) Three rats were given a single intraperitoneal dose of 100 mg/kg phenobarbital in physiological saline followed by 0.1% (w/v) phenobarbital in drinking water for four days. […] After each sample the catheter was flushed with an equal volume of physiologic saline. The samples were immediately centrifuged at 2500×g for 10 minutes and the plasma obtained was stored at -70° C. until analysis.
(§4) Data Analysis: The plasma concentration-time profile of the control and pretreated groups of rats were analyzed using non-compartmental methods (PCNONLIN, SCI, Lexington, Ky.). […] The nonparametric Mann-Whitney test was used to test for differences in AUC between the control and pretreated groups.

In series [2] the test system is UDP-GT. In words: in vivo.
Source text: as §1, §2, §3, §4

The conditions of series [3]: cited from earlier work.

The term AUC denotes concentration integrated over time. As to `CCc1c2c(nc3ccc(OC(=O)N4CCC(N5CCCCC5)CC4)cc13)-c1cc3c(c(=O)n1C2)COC(=O)[C@]3(O)CC` [CPT-11, 7-ethyl-10-[4-(1-piperidino)-1-piperidino)carbonyloxycamptot hecin], the area under the curve (AUC) at 6 h in series [1] (AUC CPT-11, control, CPT-11 20 mg/kg iv, n = 4, 0-6 h) was 7700 ± 2670 ng·h/mL; in series [1] (AUC CPT-11, phenobarbital pretreated, CPT-11 20 mg/kg, n = 2) it was 3060 ng·h/mL. In series [2] (UDP-GT induction by phenobarbital), this compound showed a decrease in availability of about 2 fold. The “decline in AUC” value in series [2] (phenobarbital pretreated) turned out to be 60%. For the same compound, the “Change in AUC CPT-11” value in series [2] (phenobarbital pretreated vs control) is -60.29%. Also, in series [3] (animal studies), the route of excretion result is “equally excreted into bile and urine”. Also, in series [3] (rats, % of CPT-11 dose), the “dose eliminated in the urine” value is “about 20%”.
